One assay has as its system A375 malignant melanoma. Description: Inhibition of cell proliferation, 14C-thymidine incorporation, A375. Format: cell-based. The conditions noted are these: Homo sapiens, A-375. As for the experimental part:
(§1) The ability of a test compound to inhibit the proliferation of cell growth was determined by measuring incorporation of ^14C-labelled thymidine into newly synthesized DNA within the cells. This method was used on cell lines derived from carcinomas originating from several tissues such as HeLa cervical adenocarcinoma (American Type Culture Collection (ATCC), Virginia, Cat. #CCL-2), HCT-116 colon carcinoma (CCL-247), MDA-MB-231 (Xenogen Corp.), PC-3 prostate adenocarcinoma (ATCC CRL-1435) and A375 malignant melanoma (ATCC CRL-1619).
(§2) Using this method, the effect of a compound on cell growth of cells with many different phenotypes can be determined. Cells were trypsinized and counted and 3000–8000 cells were added to each well of a 96-well CytoStar tissue culture treated scintillating microplate (Amersham #RPNQ0160) in complete medium in a volume of 100 μl. Cells were incubated for 24 hours in complete medium at 37° C. in an atmosphere containing 5% CO2. 1 μL of test compound in 100% DMSO was then added to the wells of the plate. DMSO only was added to control wells. Cells were incubated for 24 more hours in complete medium at 37° C. in an atmosphere containing 5% CO2. […] The degree of methyl ^14C-thymidine incorporation was quantified on a Packard Top Count.
A general note: Dividing cells build labelled thymidine or BrdU into new DNA.

Assay [1] deals with T1, PDGF-R (beta subunit kinase domain) (Homo sapiens, UniProt P09619).
T1 construct: nucleotides 1874–3507 of the human PDGF-R beta subunit kinase domain; polyhistidine (N)
Description: Kinase selectivity assay PDGF-R. Format: biochemical. The method, then:
Assays to test compound inhibition of other kinases were preformed using methods that measure the amount of phosphorylation of a biotinylated peptide substrate. Biotinylated peptide substrates were selected from the literature as appropriate for the enzyme being evaluated. […] Assay conditions vary slightly for each protein kinase, for example, insulin receptor kinase requires 10 mM MnCl2 for activity and Calmodulin-dependent protein kinase requires calmodulin and 2 mM CaCl2. The reaction mixture was dispensed into the wells of a streptavidin coated Flashplate and 1 μL test compound in 100% DMSO was added to a 100 μL reaction volume resulting in a final concentration of 1% DMSO in the reaction. Enzyme was diluted in 50 mM Tris-HCl pH=8.0, 0.1% BSA and added to each well. The reaction was incubated for one hour at 30° C. in the presence of a test compound. After one hour the reaction mix was aspirated from the plate and the plate was washed with PBS containing 100 mM EDTA. The plate was read on a scintillation counter to determine ^33P-γ-ATP incorporated into the immobilized peptide substrate. Test compounds were assayed in duplicate at 8 concentrations (100 μM, 10 μM, 1 μM, 100 nM, 10 nM, 1 nM, 100 pM, 10 pM). A maximum and minimum signal for the assay was determined on each plate. […] Known inhibitor compounds appropriate for the kinase being assayed were also included on each plate. […]

Assay [2] deals with PC-3 prostate adenocarcinoma. Briefly: Inhibition of cell proliferation, 14C-thymidine incorporation, PC-3. Format: cell-based. The conditions noted are these: Homo sapiens. As for the experimental part:
as §1, §2

What is called IC50 is the midpoint of a concentration-inhibition curve. Low readings indicate greater potency in that assay, high ones weaker potency in that assay.

T1 sequence (P09619 554-1106 limits assumed): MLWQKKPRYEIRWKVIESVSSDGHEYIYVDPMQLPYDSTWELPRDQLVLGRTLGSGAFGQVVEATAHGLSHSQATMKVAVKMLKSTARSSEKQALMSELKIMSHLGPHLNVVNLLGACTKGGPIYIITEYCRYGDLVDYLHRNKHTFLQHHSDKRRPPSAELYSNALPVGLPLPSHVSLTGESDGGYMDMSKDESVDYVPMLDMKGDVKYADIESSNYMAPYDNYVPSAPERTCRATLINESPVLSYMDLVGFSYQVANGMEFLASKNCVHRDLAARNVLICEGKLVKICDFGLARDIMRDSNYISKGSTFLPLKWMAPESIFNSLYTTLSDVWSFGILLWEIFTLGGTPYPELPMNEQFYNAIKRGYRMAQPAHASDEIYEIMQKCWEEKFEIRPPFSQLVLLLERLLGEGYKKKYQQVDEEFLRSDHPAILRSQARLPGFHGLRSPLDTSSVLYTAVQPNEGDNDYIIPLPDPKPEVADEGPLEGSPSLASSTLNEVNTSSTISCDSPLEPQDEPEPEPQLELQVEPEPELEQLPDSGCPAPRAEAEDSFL

In turn, `OCCCNc1cc(-c2ncnc(Nc3cccc(Cl)c3)n2)ccn1` [Compound 2, 3-((4-(4-((3-chlorophenyl)amino)-1,3,5-triazin-2-yl)-2-pyridinyl)amino)-1-propanol] showed an IC50 in the assay on A375 malignant melanoma of 80 nM. `OCCCNc1cncc(-c2ncnc(Nc3cccc(Cl)c3)n2)c1` [Compound 1, 3-((5-(4-((3-chlorophenyl)amino)-1,3,5-triazin-2-yl)-3-pyridinyl)amino)-1-propanol]: the IC50 in assay [1] came to 1180 nM; in assay [2] it was 259 nM.

For the origin of these results see US7205298B2, “Substituted triazine kinase inhibitors” (Janssen Pharmaceutica N.V., priority 2002, dated 2007).
